Assay in all cases: NCI-60 cell line screen, 48 h
The test system of assay [1] is Malme-3M.
For assay [2], the system named is UACC-257.
Assay [3] deals with OVCAR-8.
Assay [4] relates to OVCAR-5.
The test system of assay [5] is CCRF-CEM.
Assay [6] has as its system T47D.
The subject of assay [7] is NCI-H522.
Assay [8] deals with HT-29.
The subject of assay [9] is SR.
For assay [10], the system named is SNB-19.
The subject of assay [11] is SW-620.
For assay [12], the system named is SK-MEL-2.
Assay [13] deals with MOLT-4.
Assay [14] has as its system NCI-H23.
Assay [15] has as its system SNB-75.
Assay [16] concerns MDA-MB-435.
For assay [17], the system named is SN12C.
Assay [18] concerns UO-31.
The test system of assay [19] is HOP-92.
Assay [20] relates to HL-60.

Molecules are shown by their SMILES.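 Each compound was tested at five concentrations against cells in 96-well plates for 48 hours. GI50 = concentration required for 50% inhibition of growth.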 Calls of active or inactive are those of the source. Cut-off read from the data, not from the text of the source: active = GI50 up to about 1.1 µM and inactive = higher. Where only a bound is given, the exact number is not on record here.

With `CN(C)c1ccc(C2SCC(=O)N2c2nc3cc4sc(N5C(=O)CSC5c5ccc(N(C)C)cc5)nc4cc3s2)cc1` (stereo not given), the GI50 in [1] was > 100 µM (inactive); in assay [2] it was > 25.5 µM (inactive); in assay [3] it was > 70.5 µM (inactive); in assay [4] it was > 94 µM (inactive); in assay [5] it was 3.41 µM (inactive); in assay [6], 31.6 µM (inactive). The GI50 was 3.76 µM (inactive) in assay [7]; 17 µM (inactive) in assay [8]; 6.62 µM (inactive) in assay [9]; 41.4 µM (inactive) in assay [10]; 8.02 µM (inactive) in assay [11]; > 100 µM (inactive) in [12]. In addition, the GI50 in [13] is 3.37 µM (inactive); in assay [14], 11.4 µM (inactive); in assay [15], > 90.6 µM (inactive); in assay [16], 28 µM (inactive); in [17], > 20.5 µM (inactive); in assay [18], 23.1 µM (inactive). Moreover, the GI50 in assay [19] was > 60.5 µM (inactive); in assay [20] it was 29 µM (inactive).
Regarding `COC(=O)/C=C1/OC(c2ccccc2)=CC1=O`, the GI50 was 18.9 µM (inactive) in assay [1]; 24.7 µM (inactive) in [2]; 15 µM (inactive) in [3]; 18.6 µM (inactive) in [4]; 6.65 µM (inactive) in [5]; 20.9 µM (inactive) in assay [6]. Besides, the GI50 in assay [7] is 16.9 µM (inactive); in [8], 18.5 µM (inactive); in assay [9] it was > 23.4 µM (inactive); in assay [10], 17.3 µM (inactive); in assay [11], 16.1 µM (inactive); in [12], 22.5 µM (inactive). The GI50 in assay [13] was 6.38 µM (inactive); in assay [14] it was 17.6 µM (inactive); in assay [15], 15.5 µM (inactive); in [16], 18.3 µM (inactive); in [17], 19 µM (inactive); in assay [18], 17.8 µM (inactive). In addition, the results for the GI50 in assay [19] and in assay [20] were 22.9 µM (inactive) and 2.24 µM (inactive), respectively.
On to `CC1(C)N=C(N)N=C(N)N1c1ccc(CCCCc2ccc(S(=O)(=O)F)cc2Cl)c(Cl)c1`, for which the GI50 in assay [1] is 4.05 µM (inactive); in [2], 5.56 µM (inactive); in assay [3], 4.46 µM (inactive); in [4], 17.2 µM (inactive); in assay [5], 1.62 µM (inactive); in [6] it was 10.5 µM (inactive). Further, the GI50 in [7] is 4.68 µM (inactive); in assay [8], 1.53 µM (inactive); in assay [9], 0.207 µM (active); in [10], 3.64 µM (inactive); in [11] it was 2.7 µM (inactive); in assay [12], 8.34 µM (inactive). The GI50 in assay [13] is 0.995 µM (active); in assay [14], 4.07 µM (inactive); in assay [15], 9.23 µM (inactive); in assay [16], 3.95 µM (inactive); in [17] it was 1.16 µM (inactive); in assay [18], 36.1 µM (inactive). Besides, the values for the GI50 in assay [19] and in assay [20] were 4.18 µM (inactive) and 0.366 µM (active), respectively.
Regarding `O=C1C(=O)c2c(oc(=O)c3ccccc23)-c2ccccc21`, the GI50 in [1] was 8.93 µM (inactive); in assay [2], > 25 µM (inactive); in assay [3] it was 16.4 µM (inactive); in assay [4], > 25 µM (inactive); in assay [5], > 25 µM (inactive); in [6], > 25 µM (inactive). In addition, the GI50 in assay [7] was 21.2 µM (inactive); in assay [8] it was 17.5 µM (inactive); in [9], > 25 µM (inactive); in assay [10], > 25 µM (inactive); in [11], 22.2 µM (inactive); in assay [12], > 25 µM (inactive). The GI50 in assay [13] was > 25 µM (inactive); in assay [14], 18 µM (inactive); in assay [15], 16.6 µM (inactive); in [16], 6.75 µM (inactive); in assay [17], 14.5 µM (inactive); in [18], > 25 µM (inactive). The GI50 is 15.3 µM (inactive) in assay [19] and 8.11 µM (inactive) in [20].

Values taken from ChEMBL document CHEMBL1201862, “PubChem BioAssay data set” (2004).
